According to the NIST ThermoML archive (doi:10.1021/acs.jced.8b00168):
Several values for one entry are separate records, joined by “and”; a condition that tells them apart may be missing. Equal values may be shown once. Numbers after ± are expanded uncertainties. One block for each compound: values may come before it.

Legend:
[1] = Liquid, DSC
[2] = Boiling temperature at pressure P; details: Liquid, DSC

Structure (SMILES): CCCCCCCCCCCCCCCCCCO [1-octadecanol]
vapor or sublimation pressure ([1]; 483.46 K): 1.73 ± 0.19 kPa

Structure (SMILES): CCCC(=O)OCC(COC(=O)CCC)OC(=O)CCC [1,2,3-propanetriyl tributanoate]
vapor or sublimation pressure ([1]; 459.56 K): 1.69 ± 0.19 kPa

Structure (SMILES): CCCCCCCCCCCCCCCCO [1-hexadecanol]
vapor or sublimation pressure ([1]; 462.29 K): 1.73 ± 0.17 kPa and 1.72 ± 0.17 kPa

Structure (SMILES): CCCCCCCCC(=O)OCC(O)CO (configuration not stated) [2,3-dihydroxypropyl nonanoate]
vapor or sublimation pressure ([1]; 478.88 K): 1.69 ± 0.19 kPa

Second part, the compound after the results:

vapor or sublimation pressure ([1]; 437.72 K): 1.72 ± 0.19 kPa
Structure (SMILES): CCCCCCCCCCCCCC(=O)OC [methyl tetradecanoate]

vapor or sublimation pressure ([1]; 532.03 K): 1.7 ± 0.19 kPa
Boiling temperature at pressure P ([2]; 0.54 kPa): 231.07 ± 2.4 °C
Boiling temperature at pressure P ([2]; 1.42 kPa): 253.1 ± 3.1 °C
Boiling temperature at pressure P ([2]; 1.74 kPa): 258.40 ± 2.4 °C
Boiling temperature at pressure P ([2]; 2.14 kPa): 263.86 ± 2.6 °C
Boiling temperature at pressure P ([2]; 2.63 kPa): 269.97 ± 2.8 °C
Structure (SMILES): CCCCCCCCC(=O)OCC(CO)OC(=O)CCCCCCCC (configuration not stated) [dinonanoin]

vapor or sublimation pressure ([1]; 550.62 K): 1.7 ± 0.17 kPa
Structure (SMILES): CCCCCCCCCCCCCCCCCCCCCCCCCCCC [octacosane]
